Among the data in US11401278B2, “Macrocyclic indole derivatives” (The Broad Institute, Inc., priority 2017, dated 2022) are IC50 and EC50 values, retold here.

Series [1] has as its target BCL-2 (Homo sapiens (Human), UniProt P10415). In words: Protein-protein interaction assay BCL-2/Bad BH3 peptide (BCL-2 assay, TR-FRET). Format: binding. As to conditions: His-BCL-2 / Bad BH3 peptide, median. In short, it runs like this: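 His-BCL-2 (1-211, E. coli) at 1 nM preincubated 10 min at 22 °C with compound (11 concentrations, 0.1 nM-20 μM, duplicates), then 1 nM biotinylated Bad BH3 peptide added. After 1 h at 22 °C plus overnight at 4 °C, TR-FRET 665/620 ratio normalised to DMSO and no-BCL-2 controls, IC50 from 4-parameter fit.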

In series [2] the test system is MV-4-11. As to the kind of experiment: Antiproliferation assay (Assay 7), MV-4-11. Format: cell-based. As to conditions: CellTiter-Glo, several values per example. Put shortly:
(§1)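 Cells were exposed to compound for 72 hours at 37° C. Viability was measured by CellTiter-Glo luminescence. A day 0 plate read at the start served as the time-zero reference.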

Series [3] concerns SUDHL5. In words: Induction of caspase-3/7 activity (Assay 4), SUDHL5. It counts as cell-based. The conditions noted are these: caspase-3/7 induction, median. Put shortly:
(§2)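 Caspase-3/7 activity measured by Caspase-Glo 3/7 luminescence in DLBCL cells after 3 h compound treatment at 37 °C. Medium-only background subtracted. EC50 fitted with C0 fixed at 1 and top set to the reference compound's plateau/max induction.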

Series [4] has as its system AMO-1. In words: Antiproliferation assay (Assay 7), AMO-1. Format: cell-based. As to conditions: CellTiter-Glo, several values per example, read-out: Antiproli AMO-1 [M] IC50. Put shortly: as §1
A general note: In ATP-based viability assays light output follows the ATP content of the culture.

In series [5] the test system is SUDHL10. As to the kind of experiment: Induction of caspase-3/7 activity (Assay 4), SUDHL10. Format: cell-based. As to conditions: caspase-3/7 induction, median. In short, it runs like this: as §2
The test system of series [6] is SUDHL10. In words: Induction of cytotoxicity (Assay 6), SUDHL10. As to conditions: read-out: Cytotox SUDHL10 [M] (median) IC50, CellTiter-Glo, 5 hours, SUDHL10.
Experimental: Assay 6 Induction of Cytotoxicity Upon Treatment of Cells with Selected Compounds
Therefore, cytotoxicity assays were run in parallel in SUDHL5 and SUDHL10 cells.
The different cell lines were plated in culture medium (RPMI 1640 [GIBCO #22400-089] supplemented with 10% Fetal Bovine Serum) at a density of 3,300 cells in 30 μl/well in a sterile, solid black, flat bottom, polystyrene, TC-treated 384-well microplate (Corning #3571) using Multidrop Combi Reagent Dispenser. As a control, medium without cells was also added to the plate. Cells were incubated in a humidified incubator at 37° C. overnight. On the next day, the cells were treated with compounds (stock solution, 10 mM in DMSO) using the HP D300 Digital Dispenser in a concentration range of 3.3×10e-5 M (33 μM) to 5×10e-9 M (5 nM) in a single-dot curve with at least 16 dilutions and a DMSO concentration of 0.33%. Rim wells were excluded. The cells were incubated for 5 hours in a humidified incubator at 37° C. After this incubation, 30 μl of CellTiter-Glo® Luminescent Cell Viability reagent (Promega, G7573) was added to each well using the Multidrop Combi Reagent Dispenser, followed by 15 minutes incubation on a shaker at room temperature. Finally, luminescence was read at 0.1 ms, with a gain of 3000 using the PHERAstar FS microplate reader (BMG Labtech).
Series [7] relates to SUDHL5. In words: Antiproliferation assay (Assay 7), SUDHL5. It counts as cell-based. As to conditions: CellTiter-Glo, median, read-out: Antiproli SUDHL5 [M] (median) IC50. Put shortly: as §1
Setting [8] is: 72 hours, read-out: Antiproli MV-4-11 [M] IC50.
[9] abbreviates: Homo sapiens, MV4-11, 72 h, read-out: Antiproli MV-4-11 [M] IC50.

Molecules are shown by their SMILES. Where “and” joins values, the source holds several entries; their conditions need not be identical. Identical values can stand only once. Counter-ions that a name gives are not always drawn. Like-named read-outs stand apart in the source and are kept apart here. Where only a bound is given, the exact number is not on record here.

BCL-2, sequence (P10415 other isoform, or with tags, fused parts or gaps): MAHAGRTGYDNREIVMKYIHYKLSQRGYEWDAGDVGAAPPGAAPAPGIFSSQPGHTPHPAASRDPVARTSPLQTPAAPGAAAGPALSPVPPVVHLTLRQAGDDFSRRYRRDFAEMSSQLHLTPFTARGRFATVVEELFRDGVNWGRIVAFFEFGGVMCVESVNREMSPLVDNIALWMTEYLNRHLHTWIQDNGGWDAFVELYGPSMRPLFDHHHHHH

In the case of `CCc1c2c(nn1C)CN(CCCN1CCOCC1)S(=O)(=O)CCCn1c(C(=O)O)c(CCCOc3cccc4ccccc34)c3cccc-2c31` (racemic) [Example 15, (rac)-12-Ethyl-11-methyl-8-(3-morpholinopropyl)-1-(3-(naphthalen-1-yloxy)propyl)-4,5,6,8,9,11-hexahydropyrazolo[3′,4′:4,5][1,2,8]thiadiazacycloundecino[6,7,8-hi]indole-2-carboxylic acid 7,7-dioxide 2,2,2-trifluoroacetic acid salt], the IC50 in series [1] was over 20000 nM; in series [2] (setting [8]), 1.04e-05 M; in series [2] (setting [9]) it was 9.37e-06 M; in series [4] (Homo sapiens, AMO1, 72 h) it was 1.2e-05 M; in series [6] (Homo sapiens, SU-DHL10, 5 h), 6.3e-06 M; in series [7] (Homo sapiens, SU-DHL-5, 72 h), 1.8e-06 M. Also, the EC50 in series [3] (Homo sapiens, SU-DHL-5, 3 h) came to 2500 nM; in series [5] (Homo sapiens, SU-DHL10, 3 h), 6400 nM.

With `Cc1c2c(nn1C)CN(C)S(=O)(=O)CCCn1c(C(=O)O)c(CCCOc3cccc4c3CCC4)c3ccc(F)c-2c31` (racemic) [Example 27, (rac)-1-(3-((2,3-Dihydro-1H-inden-4-yl)oxy)propyl)-13-fluoro-8,11,12-trimethyl-5,6,9,11-tetrahydro-4H,8H-pyrazolo[3′,4′:4,5][1]thia[2,8]diazacycloundecino[6,7,8-hi]indole-2-carboxylic acid 7,7-dioxide], the IC50 in series [1] is over 20000 nM; in series [2] (setting [9]), 8.61e-07 M; in series [4] (Homo sapiens, AMO1, 72 h), 2.5e-06 M; in series [6] (Homo sapiens, SU-DHL10, 5 h), 2.1e-06 M; in series [7] (Homo sapiens, SU-DHL-5, 72 h), 7.8e-07 M. The 50% effective concentration (EC50) in series [3] (Homo sapiens, SU-DHL-5, 3 h) amounted to 700 nM; in series [5] (Homo sapiens, SU-DHL10, 3 h) it was 2400 nM.

As for `Cc1c2c(nn1C)CN(C)S(=O)(=O)CCCn1c(C(=O)O)c(CCCOc3cccc4cc(F)ccc34)c3ccc(F)c-2c31` (racemic) [Example 25, (rac)-13-Fluoro-1-(3-((6-fluoronaphthalen-1-yl)oxy)propyl)-8,11,12-trimethyl-5,6,9,11-tetrahydro-4H,8H-pyrazolo[3′,4′:4,5][1]thia[2,8]diazacycloundecino[6,7,8-hi]indole-2-carboxylic acid 7,7-dioxide], the IC50 in series [1] was > 20000 nM and 51000 nM and 46000 nM; in series [2] (setting [9]), 1.73e-06 M; in series [4] (Homo sapiens, AMO1, 72 h) it was 4.1e-06 M; in series [6] (Homo sapiens, SU-DHL10, 5 h) it was 2e-06 M; in series [7] (Homo sapiens, SU-DHL-5, 72 h), 4.1e-07 M. For the same compound, the EC50 came out at 670 nM in series [3] (Homo sapiens, SU-DHL-5, 3 h) and 1500 nM in series [5] (Homo sapiens, SU-DHL10, 3 h).

With `CCc1c2c(nn1C)CN(C)S(=O)(=O)CCCn1c(C(=O)O)c(CCCOc3ccc(F)c4ccccc34)c3ccc(F)c-2c31` (racemic) [Example 35, (rac)-12-Ethyl-13-fluoro-1-(34(4-fluoronaphthalen-1-yl)oxy)propyl)-8,11-dimethyl-5,6,9,11-tetrahydro-4H,8H-pyrazolo[3′,4′:4,5][1]thia[2,8]diazacycloundecino[6,7,8-hi]indole-2-carboxylic acid 7,7-dioxide], the IC50 in series [1] is over 20000 nM; in series [2] (setting [8]) it was 8.18e-06 M; in series [2] (setting [9]), 4.34e-06 M; in series [4] (72 hours), 6.6e-06 M; in series [4] (Homo sapiens, AMO1, 72 h), 5.2e-06 M; in series [6] (Homo sapiens, SU-DHL10, 5 h) it was 2.7e-06 M. The IC50 in series [7] (Homo sapiens, SU-DHL-5, 72 h) turned out to be 7.6e-07 M. Further, the EC50 in series [3] (Homo sapiens, SU-DHL-5, 3 h) was 1200 nM; in series [5] (Homo sapiens, SU-DHL10, 3 h) it was 2600 nM.

As for `CCc1c2c(nn1C)CN(C)S(=O)(=O)CCCn1c(C(=O)O)c(CCCOc3ccc(F)c4ccccc34)c3ccc(Cl)c-2c31` [Example 24, (rac)-13-Chloro-12-ethyl-1-(34(4-fluoronaphthalen-1-yl)oxy)propyl)-8,11-dimethyl-4,5,6,8,9,11-hexahydropyrazolo[3′,4′:4,5][1,2,8]thiadiazacycloundecino[6,7,8-hi]indole-2-carboxylic acid 7,7-dioxide], the IC50 in series [1] was over 20000 nM; in series [2] (setting [9]), 2.5e-06 M; in series [4] (Homo sapiens, AMO1, 72 h) it was 4.3e-06 M; in series [6] (Homo sapiens, SU-DHL10, 5 h), 2.4e-06 M; in series [7] (Homo sapiens, SU-DHL-5, 72 h), 1.2e-06 M. Also, the EC50 was 1100 nM in series [3] (Homo sapiens, SU-DHL-5, 3 h) and 2300 nM in series [5] (Homo sapiens, SU-DHL10, 3 h).

As for `Cc1c2c(nn1C)CN(C)S(=O)(=O)CCCn1c(C(=O)O)c(CCCOc3cccc4ccccc34)c3ccc(Cl)c-2c31` (racemic) [Example 4, (rac)-4-Chloro-2,3,14-trimethyl-7-{3-[(naphthalen-1-yl)oxy]propyl}-13,13-dioxo-10,11,12,13,14,15-hexahydro-2H-13λ^6-pyrazolo[3′,4′:4,5][1,2,8]thiadiazacycloundecino-[6,7,8-hi]indole-8-carboxylic acid], the IC50 is over 20000 nM in series [1]; 1.58e-06 M and 1.47e-06 M and 1.25e-06 M in series [2] (72 hours, listed as 04, read-out: Antiproli MV-4-11 [M] IC50); 2.5e-06 M in series [4] (Homo sapiens, AMO1, 72 h); 1.2e-06 M in series [6]; 9.2e-07 M in series [7] (72 hours). For the same compound, the EC50 is 630 nM in series [3] (3 hours) and 1600 nM in series [5] (3 hours).

Regarding `CCc1c2c(nn1C)CN(CCN1CCCCC1)S(=O)(=O)CCCn1c(C(=O)O)c(CCCOc3cccc4ccccc34)c3cccc-2c31` (racemic) [Example 14, (rac)-12-Ethyl-11-methyl-1-(3-(naphthalen-1-yloxy)propyl)-8-(2-(piperidin-1-yl)ethyl)-4,5,6,8,9,11-hexahydropyrazolo[3′,4′:4,5][1,2,8]thiadiazacycloundecino[6,7,8-hi]indole-2-carboxylic acid 7,7-dioxide 2,2,2-trifluoroacetic acid salt], the IC50 in series [1] is over 20000 nM; in series [2] (setting [8]), 1.28e-05 M; in series [2] (setting [9]) it was 1.18e-05 M; in series [4] (72 hours) it was 1.7e-05 M; in series [4] (Homo sapiens, AMO1, 72 h) it was 1.9e-05 M; in series [6] (Homo sapiens, SU-DHL10, 5 h), 8.5e-06 M. Further, in series [7] (Homo sapiens, SU-DHL-5, 72 h), the IC50 came out at 3.3e-06 M. The EC50 in series [3] (Homo sapiens, SU-DHL-5, 3 h) was found to be 4600 nM; in series [5] (Homo sapiens, SU-DHL10, 3 h), 9200 nM.

`CCc1c2c(nn1C)C(C)N(C)S(=O)(=O)CCCn1c(C(=O)O)c(CCCOc3cccc4ccccc34)c3cccc-2c31` (racemic) [Example 18, 12-Ethyl-8,9,11-trimethyl-1-(3-(naphthalen-1-yloxy)propyl)-5,6,9,11-tetrahydro-4H,8H-pyrazolo[3′,4′:4,5][1]thia[2,8]diazacycloundecino[6,7,8-hi]indole-2-carboxylic acid 7,7-dioxide (Mixture of Stereoisomers)]: the IC50 is over 20000 nM in series [1]; 3.75e-06 M in series [2] (setting [9]); 9.6e-06 M in series [4] (Homo sapiens, AMO1, 72 h); 9.2e-06 M in series [6] (Homo sapiens, SU-DHL10, 5 h); 3.7e-06 M in series [7] (Homo sapiens, SU-DHL-5, 72 h). The EC50 in series [3] (Homo sapiens, SU-DHL-5, 3 h) was 3800 nM; in series [5] (Homo sapiens, SU-DHL10, 3 h), 8400 nM.

For the compound `CCc1c2c(nn1C)CN(CCCN1CCCC1=O)S(=O)(=O)CCCn1c(C(=O)O)c(CCCOc3cccc4ccccc34)c3cccc-2c31` (racemic) [Example 13, (rac)-12-Ethyl-11-methyl-1-(3-(naphthalen-1-yloxy)propyl)-8-(3-(2-oxopyrrolidin-1-yl)propyl)-5,6,9,11-tetrahydro-4H,8H-pyrazolo[3′,4′:4,5][1]thia[2,8]diazacycloundecino[6,7,8-hi]indole-2-carboxylic acid 7,7-dioxide], the IC50 was over 20000 nM in series [1]; 1.62e-05 M in series [2] (setting [9]); over 3.3e-05 M in series [4] (Homo sapiens, AMO1, 72 h); 1.7e-05 M in series [6] (Homo sapiens, SU-DHL10, 5 h); 4.4e-06 M in series [7] (Homo sapiens, SU-DHL-5, 72 h). For the same compound, the concentration for a half-maximal effect (EC50) in series [3] (Homo sapiens, SU-DHL-5, 3 h) amounted to 10000 nM; in series [5] (Homo sapiens, SU-DHL10, 3 h) it was 16000 nM.

Consider `CCc1c2c(nn1C)CN(C)S(=O)(=O)CCCn1c(C(=O)O)c(CCCOc3cccc4c3CCC4)c3ccc(F)c-2c31` (racemic) [Example 32, (rac)-1-(3-((2,3-Dihydro-1H-inden-4-yl)oxy)propyl)-12-ethyl-13-fluoro-8,11-dimethyl-5,6,9,11-tetrahydro-4H,8H-pyrazolo[3′,4′:4,5][1]thia[2,8]diazacycloundecino[6,7,8-hi]indole-2-carboxylic acid 7,7-dioxide], for which the IC50 in series [1] is over 20000 nM; in series [2] (setting [8]) it was 1.14e-06 M; in series [2] (setting [9]), 2.2e-06 M; in series [4] (72 hours) it was 3.9e-06 M; in series [4] (Homo sapiens, AMO1, 72 h) it was 2.4e-06 M; in series [6] (Homo sapiens, SU-DHL10, 5 h) it was 1.2e-06 M. Moreover, in series [7] (Homo sapiens, SU-DHL-5, 72 h), the IC50 came to 3.9e-07 M. For the same compound, the EC50 stood at 580 nM in series [3] (Homo sapiens, SU-DHL-5, 3 h) and 1100 nM in series [5] (Homo sapiens, SU-DHL10, 3 h).

`CCc1c2c(nn1C)CN(C)S(=O)(=O)CCCn1c(C(=O)O)c(CCCOc3cccc4ccccc34)c3ccc(Cl)c-2c31` [Example 20, (rac)-13-Chloro-12-ethyl-8,11-dimethyl-1-(3-(naphthalen-1-yloxy)propyl)-5,6,9,11-tetrahydro-4H,8H-pyrazolo[3′,4′:4,5][1]thia[2,8]diazacycloundecino[6,7,8-hi]indole-2-carboxylic acid 7,7-dioxide]: the IC50 in series [1] is over 20000 nM; in series [2] (setting [9]), 1.31e-06 M; in series [4] (Homo sapiens, AMO1, 72 h) it was 2.8e-06 M; in series [6] (Homo sapiens, SU-DHL10, 5 h), 1.7e-06 M; in series [7] (Homo sapiens, SU-DHL-5, 72 h), 5.2e-07 M. In addition, the EC50 in series [3] (Homo sapiens, SU-DHL-5, 3 h) was found to be 860 nM; in series [5] (Homo sapiens, SU-DHL10, 3 h) it was 2100 nM.

Broadly, the IC50 is the concentration that inhibits the measured activity by half. One may read the EC50 as the concentration at which the effect is half-maximal. A lower EC50 goes with a more potent agent.
